US8338441B2, “Inhibitors of human immunodeficiency virus replication” (priority 2009, dated 2012)

system: HIV-1 NL4.3 strain; assay: C8166 HIV-1 Luciferase Assay (EC50); type: cell-based; details: Human immunodeficiency virus 1, C8166, 72 h, read-out: Antiviral potency EC50
From the text: C8166 HIV-1 Luciferase Assay (EC50)
C8166 cells are derived from a human T-lymphotrophic virus type 1 immortalized but nonexpressing line of cord blood lymphocytes (obtained from J. Sullivan and originally produced in the laboratory of R. Gallo, Virology 1983; 129: 51-64) and are highly permissive to HIV-1 infection. The pGL3 Basic LTR/TAR plasmid is made by introducing the HIV-1 HxB2 LTR sequence from nucleotide −138 to +80 (Sca1-HindIII) upstream of the luciferase gene in the pGL3 Basic Vector (a promoterless luciferase expression vector from Promega catalogue # E1751) with the gene for blasticidine resistance cloned in. The reporter cells are made by electroporating C8166 cells with pGL3 Basic LTR/TAR and selecting positive clones with blasticidine. Clone C8166-LTRIuc #A8-F5-G7 is selected by 3 consecutive rounds of limiting dilution under blasticidine selection. Cultures are maintained in complete media (consisting of: Roswell Park Memorial Institute medium (RPMI) 1640+10% FBS+10^−5 M β-mercaptoethanol+10 μg/ml gentamycin) with 5 μg/ml blasticidine, however, blasticidine selection is removed from the cells before performing the viral replication assay.
Luciferase Assay Protocol
Serial dilutions of HIV-1 inhibitor compounds are prepared in complete media from 10 mM DMSO stock solutions. Eleven serial dilutions of 2.5× are made at 8× desired final concentration in a 1 mL deep well titer plate (96 wells). The 12th well contains complete media with no inhibitor and serves as the positive control. All samples contain the same concentration of DMSO (≦0.1% DMSO). A 25 μL aliquot of inhibitor is added, to triplicate wells, of a 96 well tissue culture treated clear view black microtiter plate (Corning Costar catalogue # 3904). The total volume per well is 200 μL of media containing cells and inhibitor. The last row is reserved for uninfected C8166 LTRluc cells to serve as the background blank control and the first row is media alone.
C8166 LTRluc cells are counted and placed in a minimal volume of complete RPMI 1640 in a tissue culture flask (ex. 30×10^6 cells in 10 mL media/25 cm^2 flask). Cells are infected with HIV-1 or virus with variant integrase generated as described below at a […] (moi) of 0.005. Cells are incubated for 1.5 hours at 37° C. on a rotating rack in a 5% CO2 incubator and re-suspended in complete RPMI to give a final concentration of 25,000-cells/175 μL. 175 μL of cell mix is added to wells of a 96 well microtiter plate containing 25 μL 8× inhibitors. 25,000 uninfected C8166-LTRluc cells/well in 200 μL complete RPMI are added to the last row for background control. Cells are incubated at 37° C. in 5% CO2 incubator for 3 days.
50 μL Steady Glo (luciferase substrate T1/2=5 hours Promega catalogue # E2520) is added to each well of the 96 well plate. The relative light units (RLU) of luciferase is determined using the LUMIstar Galaxy luminometer (BMG LabTechnologies). Plates are read from the bottom for 2 seconds per well with a gain of 240.
The level of inhibition (% inhibition) of each well containing inhibitor is calculated as follows: […]
The calculated % inhibition values are used to determine EC50, slope factor (n) and maximum inhibition (Imax) by the non-linear regression routine NLIN procedure of SAS using the following equation: […]

SMILES | EC50 [nM]
Cc1nc(-c2nc3ccccc3n2C2CC2)c(C)c(-c2ccc(Cl)cc2)c1[C@H](OC(C)(C)C)C(=O)O [compound 1450] | 7.7
Cc1nc(C(=O)NC2CCC(C)(C)CC2)c(C)c(-c2ccc(Cl)cc2F)c1[C@H](OC(C)(C)C)C(=O)O [compound 1451] | 1.7
Cc1nc(C(=O)NC2CCC3(CC2)CC3)c(C)c(-c2ccc(Cl)cc2F)c1[C@H](OC(C)(C)C)C(=O)O [compound 1452] | 5.7
COc1cc(C(=O)Nc2nc(C)c([C@H](OC(C)(C)C)C(=O)O)c(-c3ccc(Cl)cc3F)c2C)nc2ccccc12 [compound 1453] | 2.1
Cc1nc(C(=O)N[C@H]2CC[C@H](C)CC2)c(C)c(-c2cccc(F)c2Cl)c1[C@H](OC(C)(C)C)C(=O)O [compound 1454] | 3.7
Cc1nc(C(=O)N[C@H]2CC[C@H](C)CC2)c(C)c(-c2ccccc2Cl)c1[C@H](OC(C)(C)C)C(=O)O [compound 1455] | 4
Cc1nc(C(=O)N[C@H]2CC[C@H](C)CC2)c(C)c(-c2ccc(Br)cc2)c1[C@H](OC(C)(C)C)C(=O)O [compound 1456] | 4.2
Cc1nc(C(=O)NC2CCC(C)(C)CC2)c(C)c(-c2ccc(Br)cc2)c1[C@H](OC(C)(C)C)C(=O)O [compound 1457] | 4
Cc1nc(C(=O)NC2CCC3(CC2)CC3)c(C)c(-c2ccc(Br)cc2)c1[C@H](OC(C)(C)C)C(=O)O [compound 1458] | 6.9
Cc1nc(C(=O)N[C@H]2CC[C@H](C)CC2)c(C)c(-c2ccc3c(c2)SCCO3)c1[C@H](OC(C)(C)C)C(=O)O [compound 1459] | 4
COc1cc(C(=O)Nc2nc(C)c([C@H](OC(C)(C)C)C(=O)O)c(-c3ccc(Cl)cc3)c2C)nc2ccccc12 [compound 1461] | 2.5
COc1cc(Cl)ccc1C(=O)Nc1nc(C)c([C@H](OC(C)(C)C)C(=O)O)c(-c2ccc(Cl)cc2)c1C [compound 1462] | 1.2
Cc1nc(NC(=O)c2oc3ccccc3c2C)c(C)c(-c2ccc(Cl)cc2)c1[C@H](OC(C)(C)C)C(=O)O [compound 1463] | 2.1
Cc1nc(NC(=O)[C@H]2CC[C@H](C)CC2)c(C)c(-c2ccc(Cl)cc2)c1[C@H](OC(C)(C)C)C(=O)O [compound 1464] | 6.2
Cc1ccc(C(F)(F)F)c(C(=O)Nc2nc(C)c([C@H](OC(C)(C)C)C(=O)O)c(-c3ccc(Cl)cc3)c2C)c1 [compound 1465] | 11
Cc1nc(NC(=O)c2ccc(Cl)c(F)c2)c(C)c(-c2ccc(Cl)cc2)c1[C@H](OC(C)(C)C)C(=O)O [compound 1466] | 4.9
COc1nc(C)ccc1C(=O)Nc1nc(C)c([C@H](OC(C)(C)C)C(=O)O)c(-c2ccc(Cl)cc2)c1C [compound 1467] | 4.3
Cc1nc(-c2nc3ccc(Cl)cn3c2C)c(C)c(-c2ccc(Cl)cc2)c1[C@H](OC(C)(C)C)C(=O)O [compound 1469] | 0.61
Cc1nc(C(=O)N2Cc3ccccc3C2)c(C)c(-c2ccc(Cl)cc2)c1[C@H](OC(C)(C)C)C(=O)O [compound 1471] | 2.4
COCc1nc(-c2ccc(C)c(C)c2)c(C)c(-c2ccc(Cl)cc2)c1[C@H](OC(C)(C)C)C(=O)O [compound 2003] | 17
Cc1noc(C)c1-c1ccc(-c2nc(C)c([C@H](OC(C)(C)C)C(=O)O)c(-c3ccc(Cl)cc3)c2C#N)cc1 [compound 2005] | 19
CCC(C)(C)O[C@H](C(=O)O)c1c(C)nc(C(=O)N[C@H]2CC[C@H](C)CC2)c(C)c1-c1ccc(Cl)cc1 [compound 3005] | 9.3
Cc1nc(C(=O)N[C@H]2CC[C@H](C)CC2)c(C)c(-c2ccc(Cl)cc2)c1[C@H](OC1(C)CCC1)C(=O)O [compound 3009] | 24
Cc1c(-c2ccc3c(c2)CCCO3)c([C@H](OC(C)(C)C)C(=O)O)c(C)n2cc(CC(C)(C)C)nc12 [compound 4002] | 73
COC(=O)c1cnn2c(C)c([C@H](OC(C)(C)C)C(=O)O)c(-c3ccc4c(c3)CCCO4)c(C)c12 [compound 6001] | 89
